Type in all cases: cell-based
The subject of assay [1] is Candida albicans (C. albicans—ATCC 10231). In words: Synergy test, microtiter plate high resolution MIC assay, PDB medium, yeast. The settings on record: for SI / Qb: C. albicans 10231 - PDB (6 days), A = MIT; for Qb: B alone where Qa = 0; for MIC: Candida albicans. From the text: (§1) One measure of synergism is the industrially accepted method described by Kull, F. C.; Eisman, P. C.; Sylwestrowicz, H. D. and Mayer, R. L., in Applied Microbiology 9:538-541 (1961), using the ratio determined by the formula: Qa/QA+Qb/QB=Synergy Index(“SI”) wherein: • QA=concentration of compound A (first component) in ppm, acting alone, which produced an end point (MIC of Compound A). • Qa=concentration of compound A in ppm, in the mixture, which produced an end point. • QB=concentration of compound B (second component) in ppm, acting alone, which produced an end point (MIC of Compound B). • Qb=concentration of compound B in ppm, in the mixture, which produced an end point.
(§2) When the sum of Qa/QA and Qb/QB is greater than one, antagonism is indicated. […] The lower the SI, the greater is the synergy shown by that particular mixture. The minimum inhibitory concentration (MIC) of a microbicide is the lowest concentration tested under a specific set of conditions that prevents the growth of the tested microorganisms.
(§3) Synergy tests were conducted using standard microtiter plate assays with media designed for optimal growth of the test microorganism. Minimal salt medium supplemented with 0.2% glucose and 0.1% yeast extract (M9GY medium) was used for testing bacteria; Potato Dextrose Broth (PDB medium) was used for testing yeast and mold. In this method, a wide range of combinations of microbicides and other personal care raw materials was tested by conducting high resolution MIC assays in the presence of various concentrations of CMIT/MIT, MIT, or BIT. High resolution MICs were determined by adding varying amounts of microbicide to one column of a microtitre plate and doing subsequent […] dilutions using an automated liquid handling system to obtain a series of endpoints ranging from 2 ppm to 10,000 ppm active ingredient.
(§4) The synergy of the combinations of the present invention was determined against a bacterium, Escherichia coli (E. coli—ATCC #8739), a yeast, Candida albicans (C. albicans—ATCC 10231), and a mold, Aspergillus niger (A. niger—ATCC 16404). The bacteria were used at a concentration of about 5×10^6 bacteria per mL and the yeast and mold at 5×10^5 fungi per mL. These microorganisms are representative of natural contaminants in many consumer and industrial applications. […] (yeast and mold) or 30° C. (bacteria).

For assay [2], the system named is Aspergillus niger (A. niger—ATCC 16404). In words: Synergy test, microtiter plate high resolution MIC assay, PDB medium, mold. To be noted: for SI / Qb: A = MIT; for Qb: B alone where Qa = 0; for MIC: Aspergillus niger.
From the text: as §1, §2, §3, §4

Assay [3] relates to Escherichia coli (E. coli—ATCC #8739). Kind of assay: Synergy test, microtiter plate high resolution MIC assay, M9GY medium, bacterium. To be noted: for SI / Qb: A = MIT; for Qb: B alone where Qa = 0; for MIC: Escherichia coli.
From the text: as §1, §2, §3, §4

[4] abbreviates: ATCC10231, 24 h, read-out: MIC of the component acting alone (QA or QB).
The mark [5] stands for this setting: A. niger 16404 - PDB (10 days), B = Ethylhexylglycerin.
The mark [6] stands for this setting: ATCC16404, 72 h, read-out: MIC of the component acting alone (QA or QB).
The mark [7] stands for this setting: E. coli 8739 - M9GY (6 days), B = Ethylhexylglycerin.
Where [8] appears, read: ATCC8739, 24 h, read-out: MIC of the component acting alone (QA or QB).
Setting [9] is: ATCC10231, 24 h, C. albicans 10231, PDB, 1 day, 25° C., read-out: MIC of the component acting alone (QA or QB).
The mark [10] stands for this setting: ATCC16404, 72 h, A. niger 16404, PDB, 3 days, 25° C., read-out: MIC of the component acting alone (QA or QB).
Where [11] appears, read: A. niger 16404 - PDB (10 days), B = Glyceryl caprate.
[12] abbreviates: E. coli 8739 - M9GY (1 day), B = Glyceryl caprate.
Where [13] appears, read: B = Myristamidopropyl PG-dimonium chloride phosphate.
The mark [14] stands for this setting: A. niger 16404 - PDB (3 days), B = Myristamidopropyl PG-dimonium chloride phosphate.
[15] abbreviates: E. coli 8739 - M9GY (1 day), B = Myristamidopropyl PG-dimonium chloride phosphate.

We go through six molecules from patent US8778982B2, “Synergistic microbicidal compositions” (Rohm and Haas Company, priority 2007, dated 2014).

Read-outs that look alike come from different tables or passages of the source.

In general, MIC refers to the least concentration at which growth counts as inhibited.

Regarding `CCCCC(CC)COCC(O)CO` (stereo not shown) [Ethylhexylglycerin, 3-[(2-ethylhexyl)oxy]-1,2propanediol], the “Synergy Index (SI) = Qa/QA+Qb/QB” value in assay [1] (C. albicans 10231, PDB, 1 day) was 1.00; in assay [2] (A. niger 16404, PDB, 3 days), 1.00; in assay [3] (E. coli 8739, M9GY, 1 day) it was 1.00. In addition, the SI in assay [1] (B = Ethylhexylglycerin), in assay [2] (setting [5]) and in assay [3] (setting [7]) was 1.00 throughout. For the same molecule, the Qb is 2000 ppm in assay [1] (B = Ethylhexylglycerin), 2000 ppm in assay [2] (setting [5]) and 3000 ppm in assay [3] (setting [7]). Besides, the MIC in assay [1] (setting [4]) was determined as 2 mg/mL; in assay [2] (setting [6]), 2 mg/mL; in assay [3] (setting [8]), 3 mg/mL.

`CCCCCCC(O)CO` (stereo not shown) [Caprylyl glycol, 1,2-octanediol]: the “Synergy Index (SI) = Qa/QA+Qb/QB” value in assay [1] (C. albicans 10231, PDB, 1 day) worked out at 1.00; in assay [2] (A. niger 16404, PDB, 3 days) it was 1.00; in assay [3] (E. coli 8739, M9GY, 2 days), 1.00. The MIC in assay [1] (setting [9]) stood at 3 mg/mL; in assay [2] (setting [10]), 3 mg/mL; in assay [3] (ATCC8739, 48 h, E. coli 8739, M9GY, 2 days, 30° C., read-out: MIC of the component acting alone (QA or QB)) it was 2 mg/mL.

Turning to `CCCCCCCCCCCC(=O)OCC(O)CO` (stereo not shown) [Glycerol monolaurate], the “Synergy Index (SI) = Qa/QA+Qb/QB” value in assay [1] (C. albicans 10231, PDB, 1 day) amounted to 1.00; in assay [1] (C. albicans 10231, PDB, 6 days), 1.00; in assay [2] (A. niger 16404, PDB, 3 days), 1.00; in assay [2] (A. niger 16404, PDB, 10 days), 1.00; in assay [3] (E. coli 8739, M9GY, 1 day) it was 1.00. For the same molecule, the “SI (synergy index)” value stood at 1.00 in assay [1] (C. albicans 10231, PDB, 6 days); 1.00 in assay [2] (A. niger 16404, PDB, 10 days); 1.00 in assay [3] (E. coli 8739, M9GY, 1 day). The MIC came out at 20 mg/mL in assay [1] (setting [4]); 20 mg/mL in assay [1] (ATCC10231, 144 h, read-out: MIC of the component acting alone (QA or QB)); 20 mg/mL in assay [1] (ATCC10231, 144 h, read-out: MIC of the component acting alone (Qa or Qb with the other component at 0)); 20 mg/mL in assay [2] (setting [6]); 20 mg/mL in assay [2] (ATCC16404, 240 h, read-out: MIC of the component acting alone (QA or QB)); 20 mg/mL in assay [2] (ATCC16404, 240 h, read-out: MIC of the component acting alone (Qa or Qb with the other component at 0)). Besides, the MIC in assay [3] (setting [8]) was found to be 20 mg/mL; in assay [3] (ATCC8739, 24 h, read-out: MIC of the component acting alone (Qa or Qb with the other component at 0)), 20 mg/mL.

In the case of `CCCCCCCCCC(=O)OCC(O)CO` (stereo not shown) [Glyceryl caprate], the “Synergy Index (SI) = Qa/QA+Qb/QB” value in assay [1] (C. albicans 10231, PDB, 1 day) is 1.00; in assay [2] (A. niger 16404, PDB, 3 days), 1.00; in assay [3] (E. coli 8739, M9GY, 1 day), 1.00. Further, the “SI (synergy index)” value in assay [1] (C. albicans 10231, PDB, 6 days) is given as 1.00; in assay [2] (A. niger 16404, PDB, 3 days) it was 1.00; in assay [3] (E. coli 8739, M9GY, 1 day), 1.00. Besides, the SI in assay [1] (B = Glyceryl caprate), in assay [2] (setting [11]) and in assay [3] (setting [12]) was 1.00 throughout. The Qb in assay [1] (B = Glyceryl caprate) turned out to be 2000 ppm; in assay [2] (setting [11]), 2000 ppm; in assay [3] (setting [12]) it was 20000 ppm. The MIC in assay [1] (setting [9]) amounted to 2 mg/mL; in assay [1] (ATCC10231, 144 h, C. albicans 10231, PDB, 6 days, read-out: MIC of the component acting alone (Qa or Qb with the other component at 0)), 2 mg/mL; in assay [2] (setting [10]), 2 mg/mL; in assay [2] (ATCC16404, 72 h, A. niger 16404, PDB, 3 days, read-out: MIC of the component acting alone (Qa or Qb with the other component at 0)), 2 mg/mL; in assay [3] (ATCC8739, 24 h, E. coli 8739, M9GY, 1 day, 30° C., read-out: MIC of the component acting alone (QA or QB)) it was 20 mg/mL; in assay [3] (ATCC8739, 24 h, E. coli 8739, M9GY, 1 day, read-out: MIC of the component acting alone (Qa or Qb with the other component at 0)), 20 mg/mL.

For `CCCCC(CC)COCC(O)CO` (stereo not shown) [Ehylhexylglycerin], the “MIC of the component acting alone (Qa or Qb with the other component at 0)” value is 10000 ppm in assay [1] (C. albicans 10231, PDB, 6 days); 2000 ppm in assay [2] (A. niger 16404, PDB, 3 days); 3000 ppm in assay [3] (E. coli 8739, M9GY, 2 days). Also, the “SI (synergy index)” value in assay [1] (C. albicans 10231, PDB, 6 days) was 1.00; in assay [2] (A. niger 16404, PDB, 3 days) it was 1.00; in assay [3] (E. coli 8739, M9GY, 2 days), 1.00.

For the molecule “1-propanaminium, 3,3′,3″-[phosphinylidynetris(oxy)]-tris-[N-(aminopropyl)-2-hydroxy-N,N-dimethyl-N,N′,N″-tri-C6-18 acyl deriv. trichlorides”, the “Synergy Index (SI) = Qa/QA+Qb/QB” value in assay [1] (C. albicans 10231, PDB, 1 day) is listed as 1.00; in assay [2] (A. niger 16404, PDB, 3 days) it was 1.00; in assay [3] (E. coli 8739, M9GY, 2 days), 1.00. Besides, the “MIC of the component acting alone (QA or QB)” value in assay [1] (C. albicans 10231, PDB, 1 day, 25° C.) turned out to be 800 ppm; in assay [2] (A. niger 16404, PDB, 3 days, 25° C.), 2000 ppm; in assay [3] (E. coli 8739, M9GY, 2 days, 30° C.), 100 ppm. In addition, the “MIC of the component acting alone (Qa or Qb with the other component at 0)” value was found to be 2000 ppm in assay [1] (C. albicans 10231, PDB, 2 days); 2000 ppm in assay [2] (A. niger 16404, PDB, 4 days); 80 ppm in assay [3] (E. coli 8739, M9GY, 1 day). Besides, the “SI (synergy index)” value was 1.00 in assay [1] (C. albicans 10231, PDB, 2 days); 1.00 in assay [2] (A. niger 16404, PDB, 4 days); 1.00 in assay [3] (E. coli 8739, M9GY, 1 day). In addition, the SI in assay [1] (setting [13]), in assay [2] (setting [14]) and in assay [3] (setting [15]) was 1.00 each time. Moreover, the figures for the Qb in assay [1] (setting [13]), in assay [2] (setting [14]) and in assay [3] (setting [15]) were 1000 ppm, 2000 ppm and 80 ppm, respectively.
